Test results as given in the NIST ThermoML archive (doi:10.1016/j.jct.2016.12.012).
“And” between values parts separate entries of the source, which are not always exact repeats. Equal entries are not always repeated. Numbers after ± are expanded uncertainties.

Assays:
[1] = for Normal melting temperature: DTA
[2] = Molar enthalpy of transition or fusion; conditions: DSC

COc1ccc(C(C)=O)cc1 [4'-methoxyacetophenone]
[1]
Conditions	vapor or sublimation pressure [kPa]
296.23 K, Crystal, Closed cell (Static) method	0.00059 ± 0.00011
298.19 K, Crystal, Closed cell (Static) method	0.00075 ± 0.00011
300.19 K, Crystal, Closed cell (Static) method	0.00096 ± 0.00011
302.13 K, Metastable liquid, Closed cell (Static) method	0.00143 ± 0.00012
302.18 K, Crystal, Closed cell (Static) method	0.00121 ± 0.00012
304.14 K, Metastable liquid, Closed cell (Static) method	0.00174 ± 0.00012
304.15 K, Crystal, Closed cell (Static) method	0.00153 ± 0.00012
306.09 K, Metastable liquid, Closed cell (Static) method	0.00209 ± 0.00013
306.12 K, Crystal, Closed cell (Static) method	0.00192 ± 0.00013
308.1 K, Crystal, Closed cell (Static) method	0.00239 ± 0.00014
308.12 K, Metastable liquid, Closed cell (Static) method	0.00251 ± 0.00014
310.08 K, Metastable liquid, Closed cell (Static) method	0.00301 ± 0.00016
312.06 K, Closed cell (Static) method, Liquid	0.0036 ± 0.00018
314.2 K, Closed cell (Static) method, Liquid	0.00436 ± 0.0002
316.08 K, Closed cell (Static) method, Liquid	0.00516 ± 0.00023
318.02 K, Closed cell (Static) method, Liquid	0.0061 ± 0.00026
320.04 K, Closed cell (Static) method, Liquid	0.00716 ± 0.0003
321.98 K, Closed cell (Static) method, Liquid	0.00847 ± 0.00035
324.01 K, Closed cell (Static) method, Liquid	0.01002 ± 0.00041
326 K, Closed cell (Static) method, Liquid	0.01174 ± 0.00047
327.92 K, Closed cell (Static) method, Liquid	0.01375 ± 0.00053
329.93 K, Closed cell (Static) method, Liquid	0.01614 ± 0.00056
331.9 K, Closed cell (Static) method, Liquid	0.0189 ± 0.00061
333.88 K, Closed cell (Static) method, Liquid	0.02202 ± 0.00065
335.86 K, Closed cell (Static) method, Liquid	0.02563 ± 0.00071
337.93 K, Closed cell (Static) method, Liquid	0.02998 ± 0.00078
339.82 K, Closed cell (Static) method, Liquid	0.03463 ± 0.00085
341.89 K, Closed cell (Static) method, Liquid	0.04012 ± 0.00093
343.72 K, Closed cell (Static) method, Liquid	0.04593 ± 0.001
345.84 K, Closed cell (Static) method, Liquid	0.05323 ± 0.0011
347.69 K, Closed cell (Static) method, Liquid	0.06033 ± 0.0012
349.8 K, Closed cell (Static) method, Liquid	0.06953 ± 0.0014
351.63 K, Closed cell (Static) method, Liquid	0.07823 ± 0.0015
353.72 K, Closed cell (Static) method, Liquid	0.09003 ± 0.0017
355.73 K, Closed cell (Static) method, Liquid	0.1035 ± 0.0019

Crystal
Conditions	Molar enthalpy of transition or fusion [kcal/mol]	Normal melting temperature [°C]
[1]	–	37.2 ± 0.4
[2]	4.02 ± 0.167	–

CC(=O)Oc1ccc(C(C)=O)cc1 [4-acetoxyacetophenone]
[1]
Conditions	vapor or sublimation pressure
298.12 K, Crystal 2, Calculated from knudsen effusion weight loss	9.3e-05 ± 2e-05 kPa
299.15 K, Crystal 2, Calculated from knudsen effusion weight loss	0.000105 ± 2e-05 kPa and 0.000106 ± 2e-05 kPa
300.3 K, Crystal 2, Calculated from knudsen effusion weight loss	0.000123 ± 2e-05 kPa
301.34 K, Crystal 2, Calculated from knudsen effusion weight loss	0.000143 ± 2.1e-05 kPa and 0.000142 ± 2.1e-05 kPa and 0.000141 ± 2.1e-05 kPa
302.25 K, Crystal 2, Calculated from knudsen effusion weight loss	0.000159 ± 2.1e-05 kPa
303.23 K, Crystal 2, Calculated from knudsen effusion weight loss	0.000185 ± 2.1e-05 kPa and 0.000184 ± 2.1e-05 kPa
304.1 K, Crystal 2, Calculated from knudsen effusion weight loss	0.000202 ± 2.1e-05 kPa and 0.000205 ± 2.1e-05 kPa
305.13 K, Crystal 2, Calculated from knudsen effusion weight loss	0.00023 ± 2.2e-05 kPa and 0.000232 ± 2.2e-05 kPa and 0.000229 ± 2.2e-05 kPa
306.26 K, Crystal 2, Calculated from knudsen effusion weight loss	0.000268 ± 2.2e-05 kPa and 0.000266 ± 2.2e-05 kPa
307.14 K, Crystal 2, Calculated from knudsen effusion weight loss	0.0003 ± 2.3e-05 kPa and 0.000301 ± 2.3e-05 kPa
308.25 K, Crystal 2, Calculated from knudsen effusion weight loss	0.000347 ± 2.3e-05 kPa and 0.000346 ± 2.3e-05 kPa
309.29 K, Crystal 2, Calculated from knudsen effusion weight loss	0.000397 ± 2.4e-05 kPa and 0.000395 ± 2.4e-05 kPa and 0.000394 ± 2.4e-05 kPa
315 K, Crystal 1, Closed cell (Static) method	0.00078 ± 0.00011 kPa
316 K, Crystal 1, Closed cell (Static) method	0.00087 ± 0.00012 kPa
317 K, Crystal 1, Closed cell (Static) method	0.00098 ± 0.00012 kPa
317.96 K, Crystal 1, Closed cell (Static) method	0.00109 ± 0.00012 kPa
318.99 K, Crystal 1, Closed cell (Static) method	0.00123 ± 0.00012 kPa
319.96 K, Crystal 1, Closed cell (Static) method	0.00139 ± 0.00012 kPa
321.01 K, Crystal 1, Closed cell (Static) method	0.00155 ± 0.00013 kPa
321.89 K, Crystal 1, Closed cell (Static) method	0.00173 ± 0.00013 kPa
322.88 K, Crystal 1, Closed cell (Static) method	0.00195 ± 0.00013 kPa
323.91 K, Crystal 1, Closed cell (Static) method	0.00218 ± 0.00014 kPa

[1], Liquid, Closed cell (Static) method
Conditions	vapor or sublimation pressure [kPa]
328.88 K	0.00341 ± 0.00017
330.91 K	0.00406 ± 0.0002
332.89 K	0.00478 ± 0.00022
334.84 K	0.00555 ± 0.00025
336.85 K	0.00658 ± 0.00028
338.81 K	0.00777 ± 0.00033
340.85 K	0.00908 ± 0.00037
342.77 K	0.01045 ± 0.00042
344.77 K	0.01225 ± 0.00049
346.74 K	0.01408 ± 0.00053
348.68 K	0.01633 ± 0.00057
350.65 K	0.01885 ± 0.00061
352.66 K	0.02182 ± 0.00065
354.62 K	0.02505 ± 0.0007
356.57 K	0.02907 ± 0.00076
358.59 K	0.03305 ± 0.00082
360.49 K	0.03795 ± 0.0009
362.51 K	0.04335 ± 0.00098
364.46 K	0.04961 ± 0.0011
366.46 K	0.05645 ± 0.0012
368.38 K	0.06404 ± 0.0013
370.41 K	0.07307 ± 0.0014
372.31 K	0.08205 ± 0.0016
374.34 K	0.09319 ± 0.0018
376.33 K	0.1048 ± 0.0019
378.32 K	0.1186 ± 0.0021

Conditions	Molar enthalpy of transition or fusion, Crystal 1 [kcal/mol]	Molar enthalpy of transition or fusion, Crystal 2 [kcal/mol]	Normal melting temperature, Crystal 1 [°C]	Triple point temperature, Crystal 2, DSC [K]
[1]	–	–	51.0 ± 0.6	310.1 ± 0.8
[2]	4.97 ± 0.167	0.143 ± 0.0956	–	–
